The record followed here is US12509459B2, “Inhibitors of NLRP3 inflammasome” (BioAge Labs, Inc., priority 2024, dated 2025).

Bounds are passed on as bounds.

Sequence of NLRP3 (Q96P20 whole entry): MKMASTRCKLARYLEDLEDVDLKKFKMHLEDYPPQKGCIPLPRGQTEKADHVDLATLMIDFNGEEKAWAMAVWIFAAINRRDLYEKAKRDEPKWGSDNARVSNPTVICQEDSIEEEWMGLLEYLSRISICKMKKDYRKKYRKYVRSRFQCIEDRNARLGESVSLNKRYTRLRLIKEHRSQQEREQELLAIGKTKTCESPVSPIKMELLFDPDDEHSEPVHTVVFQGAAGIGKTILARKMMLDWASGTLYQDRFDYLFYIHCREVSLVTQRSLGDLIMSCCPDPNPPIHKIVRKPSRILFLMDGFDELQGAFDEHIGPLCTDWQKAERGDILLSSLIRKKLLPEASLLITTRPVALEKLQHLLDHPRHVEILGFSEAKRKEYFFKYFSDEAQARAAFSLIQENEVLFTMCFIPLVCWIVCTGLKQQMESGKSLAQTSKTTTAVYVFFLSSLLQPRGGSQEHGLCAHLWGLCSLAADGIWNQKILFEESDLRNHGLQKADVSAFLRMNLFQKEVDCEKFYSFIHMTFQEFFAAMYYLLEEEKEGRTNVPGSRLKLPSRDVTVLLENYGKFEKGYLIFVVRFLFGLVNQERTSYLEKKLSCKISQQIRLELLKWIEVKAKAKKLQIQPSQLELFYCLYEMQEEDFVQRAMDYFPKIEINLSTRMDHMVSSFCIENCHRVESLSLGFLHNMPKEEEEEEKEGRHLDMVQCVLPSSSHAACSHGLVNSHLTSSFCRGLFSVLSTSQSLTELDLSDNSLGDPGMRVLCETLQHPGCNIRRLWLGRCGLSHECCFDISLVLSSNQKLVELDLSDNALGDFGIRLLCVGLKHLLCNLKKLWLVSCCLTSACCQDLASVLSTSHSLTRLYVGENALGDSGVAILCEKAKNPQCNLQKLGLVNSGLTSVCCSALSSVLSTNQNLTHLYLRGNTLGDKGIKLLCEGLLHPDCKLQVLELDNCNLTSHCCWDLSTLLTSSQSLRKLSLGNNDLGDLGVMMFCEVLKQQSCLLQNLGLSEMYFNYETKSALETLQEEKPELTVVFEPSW

This test addresses NLRP3 (Homo sapiens, UniProt Q96P20). Put plainly: THP-1 cell-based NLRP3 activation assay. Also noted: endogenous in cells; host or cells: THP-1 cells (PMA-differentiated, LPS-primed, nigericin-stimulated). Conditions: PMA-differentiated THP-1 cells, LPS 100 ng/mL then 10 μM nigericin. In short, it runs like this:
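THP-1 cells were PMA-differentiated (20 nM, 24 h or 500 nM, 3 h), primed with 100 ng/mL LPS for 3 h, then given compound in Opti-Mem for 30 min before 10 μM nigericin for 1 h. Supernatants assayed; viability of adherent cells by CellTiter-Glo.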
By IC50 is commonly meant the concentration that gives 50% inhibition. Higher therefore signals weaker potency in that assay. Molecule `CCOc1cc(C(=O)N(Cc2cncc3cn[nH]c23)[C@H]2CC[C@@H]2N)ccc1-c1cccc(Cl)c1` [Compound 287] came in with an IC50 of 500 to 1000 nM.

In turn, `CCOc1cc(C(=O)N(C)[C@@H](CCO)c2cnc(C)c3cn[nH]c23)ccc1-c1ccccc1` [Compound 028] registered an IC50 of more than 15000 nM.

Take `CCOc1cc(C(=O)N(CCN2CCCCC2)Cc2cncc3cn[nH]c23)ccc1-c1cccc(F)c1` [Compound 117]: the IC50 was less than 100 nM.

In turn, `CCOc1cc(C(=O)N(Cc2ccc(C)c3cn[nH]c23)[C@H]2C[C@@H](NC)C2)ccc1-c1cccc(F)c1` [Compound 266] came in with an IC50 of less than 100 nM.

With `CCOc1cc(C(=O)N(C)[C@H](CN2CCCC2)c2cccc3cn[nH]c23)ccc1-c1cccc(F)c1` [Compound 222], the half-inhibitory concentration (IC50) lay in the range of 500 to 1000 nM.

`CCOc1cc(C(=O)N(C)[C@H](CCNC)c2cncc3cn[nH]c23)ccc1-c1cccc(C#N)c1` [Compound 232] came in with a half-inhibitory concentration (IC50) of less than 100 nM.

Molecule `CCOc1cc(C(=O)N(CCO)Cc2cnc(NC)c3cn[nH]c23)ccc1-c1cccc(Cl)c1` [Compound 049] registered a 50% inhibitory concentration (IC50) of less than 100 nM.

As for `CCOc1cc(C(=O)N(Cc2cncc3cn[nH]c23)C2CC(NC)C2)ccc1-c1ccccc1` (centres unmarked) [Compound 237], the IC50 was 1000 to 15000 nM.

For `CCOc1cc(C(=O)N(CCN)Cc2cncc3cn[nH]c23)ccc1-c1cccc(F)c1` [Compound 055], the IC50 was less than 100 nM.

Molecule `CCOc1cc(C(=O)N(CCN2C[C@H](F)C[C@H](F)C2)Cc2cncc3cn[nH]c23)ccc1-c1cccc(F)c1` [Compound 106] displayed an IC50 of less than 100 nM.

`CCOc1cc(C(=O)N(Cc2cnc(C)c3cn[nH]c23)[C@H]2CC[C@@H]2O)ccc1-c1cccc(F)c1` [Compound 056] yielded an IC50 of less than 100 nM.

For `CCOc1cc(C(=O)N(C)[C@H](CO)c2cnc(CC)c3cn[nH]c23)ccc1-c1cc(C)cc(F)c1` [Compound 032], the IC50 was in the range of 100 to 500 nM.

In turn, `CCOc1cc(C(=O)N(C)[C@@H](c2cncc3cn[nH]c23)C2CNC2)ccc1-c1ccccc1` [Compound 150] came in with an IC50 of 1000 to 15000 nM.

Take `CCOc1cc(C(=O)N(C)[C@H](c2cncc3cn[nH]c23)[C@H]2CCNC2)ccc1-c1cccc(F)c1` (single isomer, unassigned) [Compound 085]: the 50% inhibitory concentration (IC50) is less than 100 nM.

For `CCOc1cc(C(=O)N(C)[C@H](CCN(C)C)c2cncc3cn[nH]c23)ccc1C1CCCC1` [Compound 157], the IC50 was less than 100 nM.

Molecule `CCOc1cc(C(=O)N(CCN2C[C@@H](F)C[C@H](F)C2)Cc2cncc3cn[nH]c23)ccc1-c1cccc(F)c1` [Compound 111] yielded an IC50 of less than 100 nM.

The molecule `CCOc1cc(C(=O)N(C)[C@H](CO)c2cncc3cn[nH]c23)ccc1-c1cc(F)cc(F)c1` [Compound 002] registered an IC50 of less than 100 nM.

For `CCOc1cc(C(=O)N(C)[C@H](CCC2CN(C)C2)c2cccc3cn[nH]c23)ccc1-c1cccc(F)c1` [Compound 297], the IC50 was in the range of 100 to 500 nM.

`CCOc1cc(C(=O)N(C)[C@H](CCNCCF)c2cncc3cn[nH]c23)ccc1-c1cccc(F)c1` [Compound 063] displayed a 50% inhibitory concentration (IC50) of less than 100 nM.

`CCOc1cc(C(=O)N(C)[C@H](CCN2CC(F)C2)c2cncc3cn[nH]c23)ccc1-c1cccc(F)c1` [Compound 070] registered an IC50 of less than 100 nM.

`CCOc1cc(C(=O)N(C)[C@@H](CN2CCCC2)c2cncc3cn[nH]c23)ccc1-c1cccc(F)c1` [Compound 130] registered an IC50 of less than 100 nM.

`CCOc1cc(C(=O)N(C)[C@H](CCNCCCF)c2cncc3cn[nH]c23)ccc1-c1cccc(Cl)c1` [Compound 139]: the half-inhibitory concentration (IC50) is less than 100 nM.

`CCOc1cc(C(=O)N(C)[C@H](CCN2CCC2)c2cccc3cn[nH]c23)ccc1-c1cccc(Cl)c1` [Compound 218] displayed an IC50 of less than 100 nM.

`CCOc1cc(C(=O)N(Cc2cncc3cn[nH]c23)[C@H]2C[C@@H](CN)C2)ccc1-c1cccc(F)c1` [Compound 248] gave an IC50 of less than 100 nM.

Regarding `CCOc1cc(C(=O)N(C)[C@@H](c2cncc3cn[nH]c23)[C@H]2CCN(C)C2)ccc1-c1ccccc1` [Compound 153], the IC50 was less than 100 nM.

Take `CCOc1cc(C(=O)N(C)[C@H](CCN2CCCC2)c2cncc3cn[nH]c23)ccc1-c1cccc(F)c1` [Compound 104]: the IC50 is less than 100 nM.

`CCOc1cc(C(=O)N(Cc2cccc3cn[nH]c23)[C@H]2C[C@@H](N)C2)ccc1-c1cccc(F)c1` [Compound 250]: the IC50 was less than 100 nM.

With `CCOc1cc(C(=O)N(C)[C@H](CCNC)c2cccc3cn[nH]c23)ccc1-c1cccc(F)c1` [Compound 197], the IC50 was less than 100 nM.

In turn, `CCOc1cc(C(=O)N(C)[C@@H](CCN(C)C)c2cncc3cn[nH]c23)ccc1-c1cccc(F)c1` [Compound 162] showed a concentration for half-maximal inhibition (IC50) of less than 100 nM.

`CCOc1cc(C(=O)N(Cc2cncc3cn[nH]c23)[C@H]2C[C@@H](NC)C2)ccc1-c1cccc(Cl)c1` [Compound 238] registered an IC50 of less than 100 nM.

In turn, `CCOc1cc(C(=O)N(C)[C@H](CCN(C)C)c2cccc3cn[nH]c23)ccc1-c1cccc(C#N)c1` [Compound 196] came in with a half-inhibitory concentration (IC50) of less than 100 nM.

In the case of `CCOc1cc(C(=O)N(Cc2cncc3cn[nH]c23)[C@H]2C[C@@H](N(C)C)C2)ccc1-c1cccc(F)c1` [Compound 244], the concentration for half-maximal inhibition (IC50) is less than 100 nM.

`CCOc1cc(C(=O)N(Cc2cncc3cn[nH]c23)[C@H]2C[C@@H](NC)C2)ccc1-c1cccc(C#N)c1` [Compound 291] registered an IC50 of less than 100 nM.

`CCOc1cc(C(=O)N(C)[C@@H](c2cncc3cn[nH]c23)[C@H]2CCNC2)ccc1-c1ccccc1` [Compound 152] gave a 50% inhibitory concentration (IC50) of 500 to 1000 nM.

Turning to `CCOc1cc(C(=O)N(C)[C@@H](c2cncc3cn[nH]c23)C2CN(CC)C2)ccc1-c1cccc(F)c1` [Compound 173], the IC50 is less than 100 nM.

Regarding `CCOc1cc(C(=O)N(CCO)Cc2cnc(N)c3cn[nH]c23)ccc1-c1cccc(Cl)c1` [Compound 046], the IC50 is less than 100 nM.

`CCOc1cc(C(=O)N(C[C@H](C)O)[C@@H](C)c2cnc(C)c3cn[nH]c23)ccc1-c1cccc(F)c1` [Compound 061] yielded a concentration for half-maximal inhibition (IC50) of more than 15000 nM.

Molecule `CCOc1cc(C(=O)N(C)[C@H](CC[N+]([O-])(CC)CC)c2cccc3cn[nH]c23)ccc1-c1cccc(Cl)c1` [Compound 207] came in with a concentration for half-maximal inhibition (IC50) of less than 100 nM.

Take `CCOc1cc(C(=O)N(C)[C@H](CN(C)C)c2cccc3cn[nH]c23)ccc1-c1cccc(Cl)c1` [Compound 220]: the 50% inhibitory concentration (IC50) lay within 100 to 500 nM.

Consider `CCOc1cc(C(=O)N(C)[C@H](CCN)c2cncc3cn[nH]c23)ccc1C` [Compound 185], for which the IC50 lay in the range of 1000 to 15000 nM.

`CCOc1cc(C(=O)N(C)[C@@H](c2cncc3cn[nH]c23)C2CN(C)C2)ccc1-c1cccc(F)c1` [Compound 079] displayed a 50% inhibitory concentration (IC50) of less than 100 nM.

For `CCOc1cc(C(=O)N(C)C(CN2CCC2)c2cccc3cn[nH]c23)ccc1-c1cccc(F)c1` (centres unmarked) [Compound 264], the half-inhibitory concentration (IC50) is less than 100 nM.

`CCOc1cc(C(=O)N(C)[C@@H](CN2CCCC2)c2cccc3cn[nH]c23)ccc1-c1cccc(F)c1` [Compound 223] yielded an IC50 of less than 100 nM.

Molecule `CCOc1cc(C(=O)N(C)[C@H](CCNC)c2cncc3cn[nH]c23)ccc1-c1cc(F)cc(C#N)c1` [Compound 280] displayed a concentration for half-maximal inhibition (IC50) of less than 100 nM.

As for `CCOc1cc(C(=O)N(Cc2cncc3cn[nH]c23)[C@H]2CC[C@H]2N)ccc1-c1cccc(Cl)c1` [Compound 295], the IC50 fell in the range of 100 to 500 nM.

Molecule `CCNCC[C@H](c1cncc2cn[nH]c12)N(C)C(=O)c1ccc(-c2cccc(F)c2)c(OCC)c1` [Compound 167] gave a half-inhibitory concentration (IC50) of less than 100 nM.

The molecule `CCOc1cc(C(=O)N(C)[C@H](CCN(C)CCF)c2cncc3cn[nH]c23)ccc1-c1ccccc1` [Compound 155] showed an IC50 of less than 100 nM.

Molecule `CCOc1cc(C(=O)N(CCO)Cc2cnc(NC)c3cn[nH]c23)ccc1-c1cccc(C#N)c1` [Compound 044] came in with a concentration for half-maximal inhibition (IC50) of 100 to 500 nM.

In turn, `CCOc1cc(C(=O)N(C)[C@H](CCOC)c2cncc3cn[nH]c23)ccc1-c1cccc(F)c1` [Compound 015] registered an IC50 of less than 100 nM.

Turning to `CCOc1cc(C(=O)N(C)C(CN(C)CC)c2cccc3cn[nH]c23)ccc1-c1cccc(F)c1` (centres unmarked) [Compound 258], the IC50 was 100 to 500 nM.

In turn, `CCOc1cc(C(=O)N(C)[C@H](CCN(C)C)c2cccc3cn[nH]c23)ccc1-c1cccc(C)c1` [Compound 195] showed an IC50 of less than 100 nM.

`CCOc1cc(C(=O)N(C)[C@@H](CCN(C)C)c2ccc(C)c3cn[nH]c23)ccc1-c1ccccc1` [Compound 205]: the concentration for half-maximal inhibition (IC50) is less than 100 nM.

For the molecule `CCOc1cc(C(=O)N(C)[C@H](CC[N+](C)(C)[O-])c2cncc3cn[nH]c23)ccc1-c1cccc(Cl)c1` [Compound 210], the half-maximal inhibitory concentration (IC50) fell in the range of 1000 to 15000 nM.

For `CCOc1cc(C(=O)N(C)[C@H](CCN2C[C@@H](F)[C@@H](F)C2)c2cncc3cn[nH]c23)ccc1-c1cccc(F)c1` [Compound 086], the half-maximal inhibitory concentration (IC50) was less than 100 nM.

In turn, `CN(C)CC[C@H](c1cncc2cn[nH]c12)N(C)C(=O)c1ccc(-c2cccc(Cl)c2)c(OC2CC2)c1` [Compound 102] returned an IC50 of less than 100 nM.

As for `CCOc1cc(C(=O)N(C)[C@@H](CCN(C)C)c2ccc(C)c3cn[nH]c23)ccc1-c1cccc(F)c1` [Compound 201], the IC50 lay within 100 to 500 nM.

Regarding `Cc1ccc([C@@H](CCN(C)C)N(C)C(=O)c2ccc(-c3cccc(F)c3)c(OC3CC3)c2)c2[nH]ncc12` [Compound 202], the half-inhibitory concentration (IC50) was less than 100 nM.

As to `CCOc1cc(C(=O)N(C)[C@H](CO)c2cncc3cn[nH]c23)ccc1-c1cccc(Cl)c1` [Compound 004], the half-inhibitory concentration (IC50) is less than 100 nM.

In turn, `CCOc1cc(C(=O)N(C)[C@H](c2cncc3cn[nH]c23)C2CN(C(C)C)C2)ccc1-c1cccc(F)c1` [Compound 176] came in with an IC50 of 100 to 500 nM.

For `CCOc1cc(C(=O)N(C)[C@@H](c2cncc3cn[nH]c23)C2CN(C(C)C)C2)ccc1-c1ccccc1` [Compound 179], the IC50 was less than 100 nM.

The molecule `CCOc1cc(C(=O)N(C)[C@H](c2cncc3cn[nH]c23)C2CN(CC)C2)ccc1-c1cccc(F)c1` [Compound 174] returned an IC50 of less than 100 nM.

`CCOc1cc(C(=O)N(C)[C@@H](c2cncc3cn[nH]c23)[C@@H]2CCNC2)ccc1-c1ccccc1` [Compound 159] came in with an IC50 of less than 100 nM.
